According to PubChem BioAssay AID248 (DTP/NCI, 2004):
Several values for one entry are separate records, joined by “and”; a condition that tells them apart may be missing. Equal entries are not always repeated. Toxic doses and inconclusive results are not listed. No stated cut-off is given here; in the data, active means T/C of 150% or more; inactive means T/C below 125%.

Tested on: L1210 leukemia ip in BDF1 mice, survival T/C
Experiment: NCI In Vivo Anticancer Drug Screen. Data for tumor model L1210 Leukemia (intraperitoneal) in B6D2F1 (BDF1) mice
Conditions: endpoint: mean survival time, higher = longer survival
In short: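 Transplanted-tumor mice were given test agent; controls received vehicle only. Survival readings from the two groups were divided (treated over control).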

[1] = dose: 100.0 mg/kg/injection, schedule: Q01DX009 (ip), vehicle: Klucel (hydroxypropylcellulose) (HPC)
[2] = dose: 100.0 mg/kg/injection, schedule: Q04DX002 (ip), vehicle: saline
[3] = dose: 200.0 mg/kg/injection, schedule: Q04DX002 (ip), vehicle: saline
[4] = dose: 400.0 mg/kg/injection, schedule: Q04DX002 (ip), vehicle: saline
[5] = dose: 100.0 mg/kg/injection, schedule: Q01DX001 (ip), vehicle: saline
[6] = dose: 200.0 mg/kg/injection, schedule: Q01DX001 (ip), vehicle: saline
[7] = dose: 400.0 mg/kg/injection, schedule: Q01DX001 (ip), vehicle: saline
[8] = dose: 100.0 mg/kg/injection, schedule: Q01DX009 (ip), vehicle: saline
[9] = dose: 200.0 mg/kg/injection, schedule: Q01DX009 (ip), vehicle: saline
[10] = dose: 400.0 mg/kg/injection, schedule: Q01DX009 (ip), vehicle: saline
[11] = dose: 100.0 mg/kg/injection, schedule: Q04DX002 (ip), vehicle: Klucel (hydroxypropylcellulose) (HPC)
[12] = dose: 200.0 mg/kg/injection, schedule: Q04DX002 (ip), vehicle: Klucel (hydroxypropylcellulose) (HPC)
[13] = dose: 100.0 mg/kg/injection, schedule: Q04DX002 (ip), vehicle: saline with Tween-80
[14] = dose: 200.0 mg/kg/injection, schedule: Q04DX002 (ip), vehicle: saline with Tween-80
[15] = dose: 400.0 mg/kg/injection, schedule: Q04DX002 (ip), vehicle: saline with Tween-80
[16] = dose: 100.0 mg/kg/injection, schedule: Q01DX001 (ip), vehicle: saline with Tween-80
[17] = dose: 100.0 mg/kg/injection, schedule: Q01DX009 (ip), vehicle: saline with Tween-80
[18] = dose: 100.0 mg/kg/injection, schedule: Q04DX003 (ip), vehicle: saline with Tween-80
[19] = dose: 200.0 mg/kg/injection, schedule: Q01DX001 (ip), vehicle: saline with Tween-80
[20] = dose: 200.0 mg/kg/injection, schedule: Q01DX009 (ip), vehicle: saline with Tween-80
[21] = dose: 200.0 mg/kg/injection, schedule: Q04DX003 (ip), vehicle: saline with Tween-80
[22] = dose: 400.0 mg/kg/injection, schedule: Q01DX009 (ip), vehicle: saline with Tween-80
[23] = dose: 400.0 mg/kg/injection, schedule: Q04DX003 (ip), vehicle: saline with Tween-80

Measured: T/C

O=c1oc(-c2ccccc2)n[n+]([O-])c1-c1ccccc1
inactive: dose: 50.0 mg/kg/injection, schedule: Q01DX009 (ip), vehicle: Klucel (hydroxypropylcellulose) (HPC) 98 % of control | [1] 98 % of control

Cc1ccc([N+](=O)[O-])cc1NC(=O)Sc1ccc(C(C)(C)C)cc1C
inactive: [2] 101 % of control | [3] 88 % of control | [4] 101 % of control

Cc1nc(N)c2nc(-c3ccc(N(CCCl)CCCl)cc3)c(N)nc2n1
inactive: [5] 96 % of control | [6] 96 % of control | [7] 96 % of control

O=C(CCCCCCCCC(=O)Nc1cccc(C(F)(F)F)c1)Nc1cccc(C(F)(F)F)c1
inactive: [1] 101 % of control | dose: 200.0 mg/kg/injection, schedule: Q01DX009 (ip), vehicle: Klucel (hydroxypropylcellulose) (HPC) 92 % of control | dose: 400.0 mg/kg/injection, schedule: Q01DX009 (ip), vehicle: Klucel (hydroxypropylcellulose) (HPC) 95 % of control

C/C(=C\C(=N\NC(=N)N)c1ccccc1)c1ccccc1
inactive: dose: 1.87 mg/kg/injection, schedule: Q01DX Z (ip), vehicle: carboxymethylcellulose (CMC) 94 % of control | dose: 3.75 mg/kg/injection, schedule: Q01DX Z (ip), vehicle: carboxymethylcellulose (CMC) 97 % of control | dose: 7.5 mg/kg/injection, schedule: Q01DX Z (ip), vehicle: carboxymethylcellulose (CMC) 88 % of control | dose: 7.5 mg/kg/injection, schedule: Q01DX Z (oral), vehicle: carboxymethylcellulose (CMC) 108 % of control | dose: 15.0 mg/kg/injection, schedule: Q01DX Z (ip), vehicle: carboxymethylcellulose (CMC) 98 % of control | dose: 15.0 mg/kg/injection, schedule: Q01DX Z (oral), vehicle: carboxymethylcellulose (CMC) 106 % of control | dose: 30.0 mg/kg/injection, schedule: Q01DX Z (oral), vehicle: carboxymethylcellulose (CMC) 100 % of control | dose: 60.0 mg/kg/injection, schedule: Q01DX Z (oral), vehicle: carboxymethylcellulose (CMC) 108 % of control

O=C(c1ccccn1)N1CCOCC1
inactive: [5] 101 % of control | [8] 98 % of control and 109 % of control | [2] 96 % of control and 116 % of control | dose: 100.0 mg/kg/injection, schedule: Q04DX003 (ip), vehicle: saline 98 % of control | [6] 105 % of control | [9] 103 % of control and 104 % of control | [3] 95 % of control and 97 % of control | dose: 200.0 mg/kg/injection, schedule: Q04DX003 (ip), vehicle: saline 98 % of control | [7] 97 % of control | [10] 95 % of control and 103 % of control | [4] 96 % of control and 103 % of control | dose: 400.0 mg/kg/injection, schedule: Q04DX003 (ip), vehicle: saline 107 % of control

CSc1cc(C)c(O)c(CO)c1
inactive: dose: 100.0 mg/kg/injection, schedule: Q01DX009 (ip), vehicle: other 92 % of control | dose: 200.0 mg/kg/injection, schedule: Q01DX009 (ip), vehicle: other 97 % of control | dose: 400.0 mg/kg/injection, schedule: Q01DX009 (ip), vehicle: other 92 % of control

O=C1OCC/C1=C\NCCCCCCCCN/C=C1\CCOC1=O
inactive: [11] 97 % of control | [12] 108 % of control | dose: 400.0 mg/kg/injection, schedule: Q04DX002 (ip), vehicle: Klucel (hydroxypropylcellulose) (HPC) 97 % of control

CC1(Cl)C(=O)NC(=O)NC1=O
inactive: dose: 25.0 mg/kg/injection, schedule: Q04DX003 (ip), vehicle: saline 96 % of control | dose: 50.0 mg/kg/injection, schedule: Q04DX003 (ip), vehicle: saline 96 % of control

O=c1cc(Oc2ccc([N+](=O)[O-])cc2)[nH]c(=O)[nH]1
inactive: dose: 100.0 mg/kg/injection, schedule: Q01DX001 (ip), vehicle: Klucel (hydroxypropylcellulose) (HPC) 96 % of control | dose: 200.0 mg/kg/injection, schedule: Q01DX001 (ip), vehicle: Klucel (hydroxypropylcellulose) (HPC) 107 % of control

Cc1ccc(S(=O)(=O)N2CCc3ccccc3C3(C2)OCCO3)cc1
inactive: dose: 100.0 mg/kg/injection, schedule: Q01DX001 (ip), vehicle: carboxymethylcellulose (CMC) 96 % of control | dose: 200.0 mg/kg/injection, schedule: Q01DX001 (ip), vehicle: carboxymethylcellulose (CMC) 96 % of control | dose: 400.0 mg/kg/injection, schedule: Q01DX001 (ip), vehicle: carboxymethylcellulose (CMC) 98 % of control

N#CC1(c2ccccc2)CCCC1(C#N)c1ccccc1 (stereo not given)
inactive: dose: 75.0 mg/kg/injection, schedule: Q01DX001 (ip), vehicle: carboxymethylcellulose (CMC) 86 % of control | dose: 150.0 mg/kg/injection, schedule: Q01DX001 (ip), vehicle: carboxymethylcellulose (CMC) 88 % of control | dose: 300.0 mg/kg/injection, schedule: Q01DX001 (ip), vehicle: carboxymethylcellulose (CMC) 86 % of control

NSc1ccc(N)s1
inactive: [13] 108 % of control | [14] 101 % of control | [15] 108 % of control

O=S(=O)(O)c1ccc(O)c2ncccc12.[Zn+2]
inactive: dose: 50.0 mg/kg/injection, schedule: Q01DX001 (ip), vehicle: saline 100 % of control | [5] 97 % of control | [6] 97 % of control | [7] 100 % of control

CNC(C)=O
inactive: [5] 100 % of control | [8] 110 % of control | dose: 125.0 mg/kg/injection, schedule: Q01DX Z (ip), vehicle: carboxymethylcellulose (CMC) 86 % of control | [6] 97 % of control | [9] 107 % of control | [7] 95 % of control | [10] 115 % of control | dose: 500.0 mg/kg/injection, schedule: Q01DX Z (ip), vehicle: carboxymethylcellulose (CMC) 86 % of control | dose: 1000.0 mg/kg/injection, schedule: Q01DX Z (ip), vehicle: carboxymethylcellulose (CMC) 110 % of control

O=C(COC(=O)c1ccccc1)NCCCCc1ccccc1
inactive: [16] 100 % of control | [17] 105 % of control and 91 % of control | [13] 96 % of control | [18] 94 % of control | [19] 89 % of control | [20] 95 % of control and 100 % of control | [14] 99 % of control and 91 % of control | [21] 92 % of control | [22] 94 % of control and 95 % of control | [15] 93 % of control and 86 % of control

Cc1ccccc1OCCCCCl
inactive: [17] 95 % of control | [18] 97 % of control | [20] 88 % of control | [21] 92 % of control | [22] 89 % of control | [23] 100 % of control

O=C(C(Cl)Cl)N(O)c1ccccc1OCc1ccccc1
inactive: [16] 98 % of control | [19] 112 % of control | dose: 400.0 mg/kg/injection, schedule: Q01DX001 (ip), vehicle: saline with Tween-80 98 % of control

NCCSC12CC3CC(CC(C3)C1)C2
inactive: [2] 90 % of control | [3] 94 % of control | [4] 96 % of control

O=C(Nc1ccccc1F)Nc1ccc(Cl)cc1Cl
inactive: [8] 100 % of control | [9] 100 % of control | [10] 98 % of control

CCN(CC)C(=O)SCCSC(=O)N(CC)CC
inactive: dose: 25.0 mg/kg/injection, schedule: Q01DX009 (ip), vehicle: saline with Tween-80 110 % of control | dose: 50.0 mg/kg/injection, schedule: Q01DX009 (ip), vehicle: saline with Tween-80 110 % of control | [17] 93 % of control

O=C1CCC2=C(CCCCCCCCCC2)N1c1ccccc1
inactive: [18] 105 % of control | [21] 105 % of control | [23] 94 % of control

CCOC(=O)CNc1ccc(Br)cc1
inactive: [11] 108 % of control | [12] 108 % of control

Cc1cc(=O)c2cc(N)ccc2[nH]1
inactive: dose: 100.0 mg/kg/injection, schedule: Q01DX009 (ip), vehicle: water 98 % of control | dose: 100.0 mg/kg/injection, schedule: Q04DX003 (ip), vehicle: water 107 % of control | dose: 200.0 mg/kg/injection, schedule: Q01DX009 (ip), vehicle: water 98 % of control | dose: 200.0 mg/kg/injection, schedule: Q04DX003 (ip), vehicle: water 113 % of control | dose: 400.0 mg/kg/injection, schedule: Q01DX009 (ip), vehicle: water 94 % of control | dose: 400.0 mg/kg/injection, schedule: Q04DX003 (ip), vehicle: water 116 % of control

Cc1nc2ccccc2s1
inactive: [2] 106 % of control | [3] 98 % of control | [4] 102 % of control
